# In patent US5220018A, “Cholecystokinin antagonists” (Merck & Co., Inc., priority 1992, dated 1993):
# Where two headings read alike, the source gives them in different places.
# What was measured:
# CCK Receptor (Pancreas) = molecular target: T1, CCK Receptor (Pancreas) (Rattus norvegicus, UniProt P30551); experiment: biochemical; format: binding, Male Sprague-Dawley rats
# T1 construct: The whole pancreas was dissected free of fat tissue and was homogenized; from tissue; host or cells: rat whole pancreas, homogenate membranes
# T1 sequence (P30551 1-444): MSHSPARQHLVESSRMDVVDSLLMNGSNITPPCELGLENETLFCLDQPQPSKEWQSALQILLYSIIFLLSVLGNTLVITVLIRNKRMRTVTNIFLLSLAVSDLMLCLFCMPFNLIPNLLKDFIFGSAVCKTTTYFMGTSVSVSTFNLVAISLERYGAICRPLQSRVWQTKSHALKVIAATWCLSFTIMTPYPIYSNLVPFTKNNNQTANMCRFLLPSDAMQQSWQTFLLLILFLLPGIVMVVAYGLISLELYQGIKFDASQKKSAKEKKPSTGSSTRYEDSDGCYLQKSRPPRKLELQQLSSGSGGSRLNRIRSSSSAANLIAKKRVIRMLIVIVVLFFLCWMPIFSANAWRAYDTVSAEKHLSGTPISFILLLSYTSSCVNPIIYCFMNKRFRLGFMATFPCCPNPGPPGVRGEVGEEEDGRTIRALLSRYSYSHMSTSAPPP
# Experimental: 1. CCK Receptor Binding (Pancreas)
# CCK-8 sulphated was radiolabelled with ^125 I-Bolton Hunter reagent (2000 Ci/mmole). Receptor binding was performed according to Chang and Lotti (Proc. Natl. Acad. Sci. 83, 4923-4926, 1986) with minor modifications.
# Male Sprague-Dawley rats (150-200 g) were sacrificed by decapitation. The whole pancreas was dissected free of fat tissue and was homogenized in 25 volumes of ice-cold 10 mM Hepes buffer with 0.1% soya bean trypsin inhibitor (pH 7.4 at 25° C.) with a Kinematica Polytron. The homogenates were centrifuged at 47,800 g for 10 min. Pellets were resuspended in 10 volumes of binding assay buffer (20 mM Hepes, 1 mM EGTA, 5 mM MgCl2, 150 mM NaCl, bacitracin 0.25 mg/ml, soya bean trypsin inhibitor 0.1 mg/ml, and bovine serum albumin 2 mg/ml, pH 6.5 at 25° C.) using a teflon homogenizer, 15 strokes at 500 rpm. The homogenate was further diluted in binding assay buffer to give a final concentration of 0.5 mg original wet weight/1 ml buffer. […] All assays were run in duplicate. The reaction mixtures were incubated at 25° C. for 2 hours and the reaction terminated by rapid filtration (Brandell 24 well cell harvester) over Whatman GF/C filters, washing 3×4 mls with ice-cold 100 mM NaCl. The radioactivity on the filters was counted with a LKB gamma counter.
# (§1) Drug displacement studies were performed with at least 10 concentrations of compounds of formula 1 and the IC50 values were determined by regression analysis.
# Gastrin Receptor = molecular target: T2, Gastrin Receptor (Cavia porcellus, UniProt H0VZC5); experiment: Gastrin Receptor Binding in Guinea Pig Gastric Glands; parameters: species or system guinea pigs
# T2 construct: from tissue; host or cells: guinea pig gastric mucosal glands (collagenase-dispersed)
# T2 sequence (H0VZC5 1-426): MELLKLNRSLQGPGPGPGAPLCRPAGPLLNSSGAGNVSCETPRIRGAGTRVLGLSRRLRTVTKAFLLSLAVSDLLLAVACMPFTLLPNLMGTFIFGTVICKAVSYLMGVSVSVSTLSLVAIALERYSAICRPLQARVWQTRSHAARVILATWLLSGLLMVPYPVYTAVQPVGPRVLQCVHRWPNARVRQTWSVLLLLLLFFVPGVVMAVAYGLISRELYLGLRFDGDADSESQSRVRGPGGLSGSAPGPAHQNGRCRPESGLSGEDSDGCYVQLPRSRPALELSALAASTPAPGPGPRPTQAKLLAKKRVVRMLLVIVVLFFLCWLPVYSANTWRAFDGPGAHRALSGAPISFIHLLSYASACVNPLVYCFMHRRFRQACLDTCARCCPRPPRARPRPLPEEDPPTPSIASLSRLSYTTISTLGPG
# Experimental: Gastrin antagonist activity of compounds of Formula I is determined using the following assay.
# A. Gastrin Receptor Binding in Guinea Pig Gastric Glands
# Preparation of guinea pig gastric mucosal glands
# Guinea pig gastric mucosal glands were prepared by the procedure of Chang et al., Science 230, 177-179 (1985) with slight modification. Gastric mucosa from guinea pigs (300-500 g body weight, male Hartley) were isolated by scraping with a glass slide after washing stomachs in ice-cold, aerated buffer consisting of the following: 130 mM NaCl, 12 mM NaHCO3, 3 mM NaH2 PO4, 3 mM Na2 HPO4, 3 mM K2 HPO4, 2 mM MgSO4, 1 mM CaCl2, 5 mM glucose and 4 mM L-glutamine, 50 mM HEPES, 0.25 mg/ml bacitracin, 0.10 mg/ml soya bean trypsin inhibitor, 0.1 mg/ml bovine serum albumin, at pH 6.5, and then incubated in a 37° C. shaking water bath for 40 minutes in buffer containing 1 mg/ml collagenase and bubbled with 95% O2 and 5% CO2. The tissues were passed twice through a 5 ml syringe to liberate the gastric glands, and then filtered through Nitex #202 gauge nylon mesh. The filtered glands were centrifuged at 272 g for 5 minutes and washed twice by resuspension in 25 ml buffer and centrifugation.
# The washed guinea pig gastric glands prepared as above were resuspended in 25 ml of standard buffer. […] The radioactivity on the filters was measured using a LKB gamma counter.
# CCK Receptor (Brain) = molecular target: T3, CCK Receptor (Brain) (Cavia porcellus, UniProt H0VZC5); experiment: CCK Receptor Binding (Brain), inhibition of 125I-CCK-8 binding; parameters: species or system Male Hartley guinea pigs
# T3 construct: the cortex was removed and homogenized in 25 mL ice-cold 0.32M sucrose; from tissue; host or cells: guinea pig cerebral cortex, P2 membrane pellet
# T3 sequence (H0VZC5 1-426): T2 sequence (H0VZC5 1-426)
# Experimental: 2. CCK Receptor Binding (Brain)
# CCK-8 sulphated was radiolabelled and the binding was performed according to the description for the pancreas method with minor modifications.
# Male Hartley guinea pigs (300-500 g) were sacrificed by decapitation and the cortex was removed and homogenized in 25 mL ice-cold 0.32M sucrose. The homogenates were centrifuged at 1000 g for 10 minutes and the resulting supernatant was recentrifuged at 20,000 g for 20 minutes. […] All assays were run in duplicate. The reaction mixtures were incubated at 25° C. for 2 hours and then the reaction was terminated on Whatman GF/C filters by rapid filtration (Brandell 24 well cell Harvester) with 3×5 ml washes of cold 100 mM NaCl. The radioactivity on the filters was then counted with a LKB gamma counter.
# as §1
# [1] = rat pancreas membranes, 125I-CCK-8 50 pM, 25° C., 2 hours, read-out: IC50, 125I-CCK Pancreas
# [2] = guinea pig cortex membranes, 125I-CCK-8 50 pM, 25° C., 2 hours, read-out: IC50, 125I-CCK Brain
Compound,IC50 (CCK Receptor (Pancreas); [1]),IC50 (Gastrin Receptor),IC50 (CCK Receptor (Brain)),"IC50 (Gastrin Receptor; guinea pig gastric glands, method: 125I-gastrin 0.1 nM, 25° C., 30 minutes, read-out: IC50, 125I-CCK Gastric Glands)",IC50 (CCK Receptor (Brain); [2]),IC50 (CCK Receptor (Pancreas))
"CN1C(=O)[C@H](NC(=O)Nc2cccc(-c3nnn[nH]3)c2)N=C(c2ccccc2)c2ccccc21 [Example 1, N-{1,3-Dihydro-1-methyl-2-oxo-5-phenyl-1H-1,4-benzodiazepin-3-yl}-N'-{[3-(1H-tetrazol-5-yl)phenyl]urea}]",400 nM,0.7 nM,1 nM,–,–,–
"CC(C)CN1C(=O)[C@H](NC(=O)Nc2cccc(-c3nnn[nH]3)c2)N=C(c2ccccc2)c2ccccc21 [Example 2, N-{1,3-Dihydro-1-[2-methyl]propyl-2-oxo-5-phenyl-1H-1,4-benzodiazepin-3-yl}-N'-{[3-(1H-tetrazol-5-yl)phenyl]urea}]",1400 nM,–,–,0.24 nM,0.1 nM,–
"CN1C(=O)[C@H](NC(=O)Nc2cccc(C(=O)NS(=O)(=O)C(C)(C)C)c2)N=C(c2ccccc2)c2ccccc21 [Example 25, N-{1,3-Dihydro-1-methyl-2-oxo-5-phenyl-1H-1,4-benzodiazepin-3-yl}-N'-{[3-(N-(t-butylsulfonyl)carboxamido)phenyl]urea}]",> 3000 nM,–,–,–,0.38 nM,–
"CC(C)NC(=O)NC(=O)c1cccc(NC(=O)N[C@@H]2N=C(c3ccccc3)c3ccccc3N(C)C2=O)c1 [Example 26, N-{1,3-Dihydro-1-methyl-2-oxo-5-phenyl-1H-1,4-benzodiazepin-3-yl}-N'-{[3-(N-(2-propylaminocarbonyl)carboxamido)phenyl]urea}]",> 3000 nM,–,–,–,410 nM,–
"CC(=O)NS(=O)(=O)c1cccc(NC(=O)N[C@@H]2N=C(c3ccccc3)c3ccccc3N(CC3CC3)C2=O)c1 [Example 27, N-{1,3-Dihydro-1-cyclopropylmethyl-2-oxo-5-phenyl-1H-1,4-benzodiazepin-3-yl}-N'-{[3-(N-(acetyl)sulfonamido)phenyl]urea}]",4600 nM,–,–,–,0.55 nM,–
"CN1C(=O)[C@H](NC(=O)Nc2cccc(S(=O)(=O)NC(=O)C(C)(C)C)c2)N=C(c2ccccc2)c2ccccc21 [Example 28, N-{1,3-Dihydro-1-methyl-2-oxo-5-phenyl-1H-1,4-benzodiazepin-3-yl}-N'-{[3-(N-(1,1-dimethylethylcarbonyl)sulfonamido)phenyl]urea}]",> 3000 nM,–,–,–,12 nM,–
"CN1C(=O)[C@H](NC(=O)Nc2cccc(S(=O)(=O)NC(=O)C3CC3(C)C)c2)N=C(c2ccccc2)c2ccccc21 (some centres unmarked) [Example 29, N-{1,3-Dihydro-1-methyl-2-oxo-5-phenyl-1H-1,4-benzodiazepin-3-yl}-N'-{[3-(N-(2,2-dimethylcyclopropylcarbonyl)sulfonamido)phenyl]urea}]",> 3000 nM,–,–,–,11 nM,–
"CN1C(=O)[C@H](NC(=O)Nc2cccc(S(=O)(=O)NC(=O)NC(C)(C)C)c2)N=C(c2ccccc2)c2ccccc21 [Example 30, N-{1,3-Dihydro-1-methyl-2-oxo-5-phenyl-1H-1,4-benzodiazepin-3-yl}-N'-{[3-(N-(t-butylaminocarbonyl)sulfonamido)phenyl]urea}]",> 3000 nM,–,–,–,14 nM,–
"CN1C(=O)[C@H](NC(=O)Nc2cccc(S(=O)(=O)NP(=O)(Oc3ccccc3)Oc3ccccc3)c2)N=C(c2ccccc2)c2ccccc21 [Example 31, N-{1,3-Dihydro-1-methyl-2-oxo-5-phenyl-1H-1,4-benzodiazepin-3-yl}-N'-{[3-(N-(diphenylphosphono)sulfonamido)phenyl]urea}]",–,–,15 nM,–,–,> 3000 nM
"CN1C(=O)[C@H](NC(=O)Nc2cccc(/C=C/C(=O)O)c2)N=C(c2ccccc2)c2ccccc21 [Example 32, N-{1,3-Dihydro-1-methyl-2-oxo-5-phenyl-1H-1,4-benzodiazepin-3-yl}-N'-{[3-(trans-carboxyethylene)phenyl]urea}]",12 nM,–,–,–,8.9 nM,–
"CN1C(=O)[C@H](NC(=O)Nc2cccc(-c3nnn(C)n3)c2)N=C(c2ccccc2)c2ccccc21 [Example 33, N-{1,3-Dihydro-1-methyl-2-oxo-5-phenyl-1H-1,4-benzodiazepin-3-yl}-N'-{[3-(2-methyltetrazol-5-yl)phenyl]urea}]",–,–,–,–,21 nM,1600 nM
"CN1C(=O)[C@H](NC(=O)Nc2cccc(-c3noc(=O)[nH]3)c2)N=C(c2ccccc2)c2ccccc21 [Example 34, N-{1,3-Dihydro-1-methyl-2-oxo-5-phenyl-1H-1,4-benzodiazepin-3-yl}-N'-{[3-(1,2,4-oxadiazol-5-one)phenyl]urea}]",1100 nM,–,–,–,0.19 nM,–
"O=C(Nc1cccc(-c2noc(=O)[nH]2)c1)N[C@@H]1N=C(c2ccccc2)c2ccccc2N(CC2CC2)C1=O [Example 35, N-{1,3-Dihydro-1-cyclopropylmethyl-2-oxo-5-phenyl-1H-1,4-benzodiazepin-3-yl}-N'-{[3-(1,2,4-oxadiazol-5-one)phenyl]urea}]",190 nM,–,–,–,0.09 nM,–
"CN1C(=O)[C@H](NC(=O)Nc2cccc(C3=NOS(=O)N3)c2)N=C(c2ccccc2)c2ccccc21 (some centres unmarked) [Example 36, N-{1,3-Dihydro-1-methyl-2-oxo-5-phenyl-1H-1,4-benzodiazepin-3-yl}-N'-{[3-(1,2,4-oxadiathiazol-5-one)phenyl]urea}]",1520 nM,–,–,–,19.6 nM,–
CN1C(=O)[C@H](NC(=O)Nc2cccc(-c3n[nH]c(=O)o3)c2)N=C(c2ccccc2)c2ccccc21 [Example 37],2460 nM,–,–,–,3.62 nM,–
